In PubChem BioAssay AID1339 (NMMLSC, 2008) one finds EC50 data, which are given here for 55 compounds.

The test has as its target Ras-related C3 botulinum toxin substrate 1 (Homo sapiens) (UniProt P63000). As to the kind of experiment: activated Rac1 mutant nucleotide-binding inhibitors – biochemical, multiplex, GST-Rac1 beads, Bodipy-FL-GTP, flow cytometry, dose response (AID 1339). (In general: In flow cytometry, cells or beads pass a laser one at a time.)
Regarding `COc1ccc(C(=O)Nc2cc(Cl)ccc2C(=O)O)cc1`, the EC50 is 22.1 µM.
As for `O=C(C#Cc1ccccc1)c1cccc([N+](=O)[O-])c1`, the 50% effective concentration (EC50) was 23.5 µM.
As to `CCOC(=O)c1cc([N+](=O)[O-])c([N+](=O)[O-])cc1NC(C)=O`, the EC50 is 31.5 µM.
For `Cc1cc(C(=O)Cn2nc(C(=O)O)c3ccccc3c2=O)c(C)n1-c1ccc(OC(F)F)cc1` the value was 3.55 µM; for `Cc1cc(OCCSc2nc3ccccc3n2CC(=O)O)ccc1Cl`, 25.1 µM.
As to `O=C(C#Cc1ccc(F)cc1)c1ccc([N+](=O)[O-])cc1`, the concentration giving a half-maximal response (EC50) was 3.92 µM.
Under `COc1ccc(OC)c(-c2c3cc(O)c(=O)cc-3oc3cc(O)c(O)cc23)c1` stands 0.28 µM; under `O=[N+]([O-])c1cc2oc3c(c2c(C=NCc2ccccc2)c1O)CCCC3`, 5.79 µM; under `CCN(CC)c1ccc2cc(-c3nc(-c4ccc(OC)cc4)cs3)c(=O)oc2c1`, 0.553 µM.
For `COc1ccc(Cl)cc1NCc1sc(C(=O)O)cc1C` the value was 2.19 µM.
Under `CCCOc1ccc(OCCSc2nc3ccccc3n2CC(=O)O)cc1` stands 35.6 µM.
As for `COc1ccc(C(=O)c2c(O)cc(-c3ccc(OC)cc3)oc2=O)cc1`, the EC50 was 3.57 µM.
Under `COc1cc(C(=O)OCC(=O)Nc2ccc3c(c2)OC(F)(F)O3)ccc1OCc1c(C)noc1C` stands 14.2 µM; under `O=C(O)c1cc(Sc2ccc(F)cc2)nc2ccccc12`, 46.8 µM.
Under `Cc1cc(NC(=O)CSc2nc(-c3ccccc3)c(C#N)c(=O)[nH]2)no1` stands 12.9 µM; under `Cc1nn(Cc2ccccc2)c(Cl)c1C(=O)O`, 21.7 µM; under `O=C(CSc1ncnc2scc(-c3ccccc3)c12)N1CCN(Cc2ccc3c(c2)OCO3)CC1`, 61.1 µM.
Under `O=C(O)c1cn(CCOc2ccccc2)c2ccccc12` stands 0.857 µM; under `Cc1ccc(C(C)C)c(OCCSc2nc3ccccc3n2CC(=O)O)c1`, 33.5 µM.
For the compound `CCc1ccc(NS(=O)(=O)c2ccc3[nH]cc(C(=O)N4CCc5ccccc54)c(=O)c3c2)cc1`, the EC50 was 20.6 µM.
Turning to `CC(=O)Nc1cccc(C#CC(=O)c2ccc([N+](=O)[O-])cc2)c1`, the concentration giving a half-maximal response (EC50) was 14.2 µM.
Turning to `COC(=O)c1cccnc1SCCc1ccccc1`, the EC50 was 36.6 µM.
Consider `CSc1ccc(/C=N/NC(=O)c2cc(O)cc(O)c2)cc1`, for which the EC50 is 55.4 µM.
Take `CCOC(=O)c1c(NC(=O)/C=C/c2ccc3c(c2)OCO3)sc(C)c1CC`: the EC50 is 30.1 µM.
Take `Cc1cc(C)c(C)c(C(=O)c2ccccc2C(=O)O)c1C`: the concentration for a half-maximal effect (EC50) was 1.52 µM.
`COc1ccccc1OCc1cccc(C(=O)O)c1`: the EC50 is 9.53 µM.
Consider `Cc1cc(C)cc(OCCSc2nc3ccccc3n2CC(=O)O)c1`, for which the concentration for a half-maximal effect (EC50) was 23.6 µM.
Under `O=C(O)c1cc(Sc2ccc(Cl)cc2)nc2ccccc12` stands 69.4 µM; under `Cc1ccc(C(C)C)c(OCCn2cc(C(=O)O)c3ccccc32)c1`, 0.635 µM.
Under `O=C(c1nnsc1S(=O)(=O)c1ccc(Cl)cc1)N1CCOCC1` stands 13.7 µM.
For `COc1cccc(NC(=O)COC(=O)/C=C/c2ccc(Cl)cc2Cl)c1` the value was 13.3 µM.
Regarding `CC(=O)c1c(C)[nH]c(C(=O)N2CCc3ccccc3C2)c1C`, the EC50 is 2.53 µM.
Under `CS(=O)(=O)c1ccc(C(=O)OCC(=O)NC(=O)C2CCCCC2)cc1[N+](=O)[O-]` stands 43.2 µM; under `O=C(O)/C=C/c1cn(Cc2ccccc2)nc1-c1cccs1`, 1.94 µM; under `N#Cc1c(-c2ccccc2)nc(SCC(=O)Nc2ccccc2)[nH]c1=O`, 29.5 µM.
For `COc1ccccc1NCc1sc(C(=O)O)cc1C` the value was 4.26 µM; for `CNC(=S)N=Nc1c(O)[nH]c2ccccc12`, 91.6 µM; for `Cc1cc(C(=O)Oc2ccccc2C(=O)O)c(C)o1`, 0.665 µM.
For `Cc1ccccc1C(=O)Nc1ccc2c(C#N)c3nc4ccccc4nc3n2c1` the value was 0.889 µM; for `Cc1ccc(-n2c(-c3cnccn3)n[nH]c2=S)c(Br)c1`, 28 µM; for `O=C(O)c1ccccc1NCc1c(Cl)cccc1Cl`, 34.1 µM.
Regarding `O=C(O)c1ccccc1Sc1ncnc2sc3c(c12)CCC3`, the EC50 is 1.08 µM.
For the compound `OC(CNCCc1ccc(Cl)cc1)COc1ccc2ccccc2c1` (stereo not given), the concentration for a half-maximal effect (EC50) was 39 µM.
On to `COc1ccccc1OCCn1cc(C(=O)O)c2ccc(Cl)cc21`, for which the EC50 is 1.75 µM.
For `COc1cccc(CNCc2sc(C(=O)O)cc2C)c1` the value was 25.9 µM.
With `CCOc1ccc(/C=C2\SC(N3CCc4ccccc4C3)=NC2=O)cc1`, the EC50 is 10.6 µM.
For `O=C(Nc1nnc(-c2ccc3c(c2)OCCO3)o1)c1ccc(Cc2ccccc2)cc1` the value was 10.2 µM; for `CCn1nc(C(=O)OCC(=O)c2cc(C)n(Cc3cccs3)c2C)c2ccccc2c1=O`, 45.6 µM.
For `Cc1ccc(C)c(OCCn2cc(C(=O)O)c3ccccc32)c1` the value was 0.222 µM; for `CC(C)(C)C#CC(=O)c1ccc([N+](=O)[O-])cc1`, 65.1 µM.
For `Cc1ccc(Nc2cc(C(=O)O)c3ccccc3n2)cc1C`, the half-maximal effective concentration (EC50) was 5.56 µM.
`Cc1ccc(SC(CC(=O)c2ccc(C(C)(C)C)cc2)C(=O)O)cc1` (stereo not given): the concentration for a half-maximal effect (EC50) was 12.3 µM.
For `CC(=O)c1ccc(C#CC(=O)c2ccc([N+](=O)[O-])cc2)cc1` the value was 1.22 µM; for `Cc1ccccc1OCCn1c(C)c(C(=O)O)c2ccccc21`, 0.625 µM; for `O=C(C#Cc1ccccc1)c1ccc([N+](=O)[O-])cc1`, 6.48 µM.

The term EC50 denotes the midpoint of the concentration-response curve.
